Assay results reported in the NIST ThermoML archive (doi:10.1016/j.jct.2013.10.025).
± gives the expanded uncertainty stated by the source.

Assay: xn = mol fraction of the nth substance listed
Conditions: 101 kPa, Liquid; for viscosity: Capillary tube (Ostwald / Ubbelohde) method; for speed of sound: Sing-around technique in a fixed-path interferometer; for mass density: Vibrating tube method

CCCCCCCCCCO [decan-1-ol] + C1CCOC1
viscosity (298.15 K, x2 = 0.0503): 9.806 ± 0.37 mPa·s
viscosity (298.15 K, x2 = 0.1046): 8.47 ± 0.36 mPa·s
viscosity (298.15 K, x2 = 0.157): 7.201 ± 0.36 mPa·s
viscosity (298.15 K, x2 = 0.2022): 6.345 ± 0.36 mPa·s
viscosity (298.15 K, x2 = 0.253): 5.428 ± 0.36 mPa·s
viscosity (298.15 K, x2 = 0.3057): 4.609 ± 0.36 mPa·s
viscosity (298.15 K, x2 = 0.4094): 3.343 ± 0.36 mPa·s
viscosity (298.15 K, x2 = 0.5018): 2.503 ± 0.36 mPa·s
viscosity (298.15 K, x2 = 0.6038): 1.842 ± 0.36 mPa·s
viscosity (298.15 K, x2 = 0.7003): 1.366 ± 0.36 mPa·s
viscosity (298.15 K, x2 = 0.8004): 0.98 ± 0.36 mPa·s
viscosity (298.15 K, x2 = 0.9043): 0.691 mPa·s
speed of sound (298.15 K, x2 = 0.0503): 1372.7 ± 1.5 m/s
speed of sound (298.15 K, x2 = 0.1046): 1368.8 ± 1.5 m/s
speed of sound (298.15 K, x2 = 0.157): 1365.1 ± 1.5 m/s
speed of sound (298.15 K, x2 = 0.2022): 1361.8 ± 1.5 m/s
speed of sound (298.15 K, x2 = 0.253): 1357.5 ± 1.5 m/s
speed of sound (298.15 K, x2 = 0.3057): 1352.6 ± 1.5 m/s
speed of sound (298.15 K, x2 = 0.4094): 1343.7 ± 1.5 m/s
speed of sound (298.15 K, x2 = 0.5018): 1334 ± 1.5 m/s
speed of sound (298.15 K, x2 = 0.6038): 1323.4 ± 1.5 m/s
speed of sound (298.15 K, x2 = 0.7003): 1312.4 ± 1.5 m/s
speed of sound (298.15 K, x2 = 0.8004): 1299.3 ± 1.5 m/s
speed of sound (298.15 K, x2 = 0.9043): 1286.4 ± 1.5 m/s
mass density (298.15 K, x2 = 0.0503): 827.6 ± 0.24 kg/m3
mass density (298.15 K, x2 = 0.1046): 828.949 ± 0.24 kg/m3
mass density (298.15 K, x2 = 0.157): 830.327 ± 0.24 kg/m3
mass density (298.15 K, x2 = 0.2022): 831.593 ± 0.24 kg/m3
mass density (298.15 K, x2 = 0.253): 833.093 ± 0.24 kg/m3
mass density (298.15 K, x2 = 0.3057): 834.766 ± 0.24 kg/m3
mass density (298.15 K, x2 = 0.4094): 838.49 ± 0.24 kg/m3
mass density (298.15 K, x2 = 0.5018): 842.347 ± 0.24 kg/m3
mass density (298.15 K, x2 = 0.6038): 847.354 ± 0.24 kg/m3
mass density (298.15 K, x2 = 0.7003): 853.111 ± 0.24 kg/m3
mass density (298.15 K, x2 = 0.8004): 860.53 ± 0.24 kg/m3
mass density (298.15 K, x2 = 0.9043): 870.265 ± 0.23 kg/m3
viscosity (303.15 K, x2 = 0.0503): 8.074 ± 0.36 mPa·s
viscosity (303.15 K, x2 = 0.1046): 7.037 ± 0.36 mPa·s
viscosity (303.15 K, x2 = 0.157): 6.17 ± 0.36 mPa·s
viscosity (303.15 K, x2 = 0.2022): 5.262 ± 0.36 mPa·s
viscosity (303.15 K, x2 = 0.253): 4.527 ± 0.36 mPa·s
viscosity (303.15 K, x2 = 0.3057): 3.958 ± 0.36 mPa·s
viscosity (303.15 K, x2 = 0.4094): 2.908 ± 0.36 mPa·s
viscosity (303.15 K, x2 = 0.5018): 2.095 ± 0.36 mPa·s
viscosity (303.15 K, x2 = 0.6038): 1.635 ± 0.36 mPa·s
viscosity (303.15 K, x2 = 0.7003): 1.224 ± 0.36 mPa·s
viscosity (303.15 K, x2 = 0.8004): 0.907 ± 0.36 mPa·s
viscosity (303.15 K, x2 = 0.9043): 0.649 mPa·s
speed of sound (303.15 K, x2 = 0.0503): 1355.9 ± 1.5 m/s
speed of sound (303.15 K, x2 = 0.1046): 1351.7 ± 1.5 m/s
speed of sound (303.15 K, x2 = 0.157): 1348.3 ± 1.5 m/s
speed of sound (303.15 K, x2 = 0.2022): 1344.4 ± 1.5 m/s
speed of sound (303.15 K, x2 = 0.253): 1339.9 ± 1.5 m/s
speed of sound (303.15 K, x2 = 0.3057): 1335 ± 1.5 m/s
speed of sound (303.15 K, x2 = 0.4094): 1325.7 ± 1.5 m/s
speed of sound (303.15 K, x2 = 0.5018): 1315.6 ± 1.5 m/s
speed of sound (303.15 K, x2 = 0.6038): 1304.3 ± 1.5 m/s
speed of sound (303.15 K, x2 = 0.7003): 1292.6 ± 1.5 m/s
speed of sound (303.15 K, x2 = 0.8004): 1278.9 ± 1.5 m/s
speed of sound (303.15 K, x2 = 0.9043): 1264.9 ± 1.5 m/s
mass density (303.15 K, x2 = 0.0503): 824.137 ± 0.24 kg/m3
mass density (303.15 K, x2 = 0.1046): 825.438 ± 0.24 kg/m3
mass density (303.15 K, x2 = 0.157): 826.766 ± 0.24 kg/m3
mass density (303.15 K, x2 = 0.2022): 827.998 ± 0.24 kg/m3
mass density (303.15 K, x2 = 0.253): 829.453 ± 0.24 kg/m3
mass density (303.15 K, x2 = 0.3057): 831.076 ± 0.24 kg/m3
mass density (303.15 K, x2 = 0.4094): 834.656 ± 0.24 kg/m3
mass density (303.15 K, x2 = 0.5018): 838.365 ± 0.24 kg/m3
mass density (303.15 K, x2 = 0.6038): 843.203 ± 0.24 kg/m3
mass density (303.15 K, x2 = 0.7003): 848.748 ± 0.24 kg/m3
mass density (303.15 K, x2 = 0.8004): 855.869 ± 0.24 kg/m3
mass density (303.15 K, x2 = 0.9043): 865.235 ± 0.23 kg/m3
viscosity (308.15 K, x2 = 0.0503): 6.379 ± 0.36 mPa·s
viscosity (308.15 K, x2 = 0.1046): 5.67 ± 0.36 mPa·s
viscosity (308.15 K, x2 = 0.157): 4.969 ± 0.36 mPa·s
viscosity (308.15 K, x2 = 0.2022): 4.236 ± 0.36 mPa·s
viscosity (308.15 K, x2 = 0.253): 3.663 ± 0.36 mPa·s
viscosity (308.15 K, x2 = 0.3057): 3.249 ± 0.36 mPa·s
viscosity (308.15 K, x2 = 0.4094): 2.385 ± 0.36 mPa·s
viscosity (308.15 K, x2 = 0.5018): 1.738 ± 0.36 mPa·s
viscosity (308.15 K, x2 = 0.6038): 1.408 ± 0.36 mPa·s
viscosity (308.15 K, x2 = 0.7003): 1.04 ± 0.36 mPa·s
viscosity (308.15 K, x2 = 0.8004): 0.807 ± 0.36 mPa·s
viscosity (308.15 K, x2 = 0.9043): 0.58 mPa·s
speed of sound (308.15 K, x2 = 0.0503): 1339.1 ± 1.5 m/s
speed of sound (308.15 K, x2 = 0.1046): 1335 ± 1.5 m/s
speed of sound (308.15 K, x2 = 0.157): 1331.1 ± 1.5 m/s
speed of sound (308.15 K, x2 = 0.2022): 1327 ± 1.5 m/s
speed of sound (308.15 K, x2 = 0.253): 1322.2 ± 1.5 m/s
speed of sound (308.15 K, x2 = 0.3057): 1317.2 ± 1.5 m/s
speed of sound (308.15 K, x2 = 0.4094): 1307.1 ± 1.5 m/s
speed of sound (308.15 K, x2 = 0.5018): 1296.8 ± 1.5 m/s
speed of sound (308.15 K, x2 = 0.6038): 1284.4 ± 1.5 m/s
speed of sound (308.15 K, x2 = 0.7003): 1271.8 ± 1.5 m/s
speed of sound (308.15 K, x2 = 0.8004): 1257.6 ± 1.5 m/s
speed of sound (308.15 K, x2 = 0.9043): 1241.5 ± 1.5 m/s
mass density (308.15 K, x2 = 0.0503): 820.661 ± 0.24 kg/m3
mass density (308.15 K, x2 = 0.1046): 821.913 ± 0.24 kg/m3
mass density (308.15 K, x2 = 0.157): 823.195 ± 0.24 kg/m3
mass density (308.15 K, x2 = 0.2022): 824.389 ± 0.24 kg/m3
mass density (308.15 K, x2 = 0.253): 825.796 ± 0.24 kg/m3
mass density (308.15 K, x2 = 0.3057): 827.357 ± 0.24 kg/m3
mass density (308.15 K, x2 = 0.4094): 830.825 ± 0.24 kg/m3
mass density (308.15 K, x2 = 0.5018): 834.401 ± 0.24 kg/m3
mass density (308.15 K, x2 = 0.6038): 839.036 ± 0.24 kg/m3
mass density (308.15 K, x2 = 0.7003): 844.365 ± 0.24 kg/m3
mass density (308.15 K, x2 = 0.8004): 851.199 ± 0.24 kg/m3
mass density (308.15 K, x2 = 0.9043): 860.184 ± 0.24 kg/m3
speed of sound (313.15 K, x2 = 0.0503): 1322.7 ± 1.5 m/s
speed of sound (313.15 K, x2 = 0.1046): 1318.3 ± 1.5 m/s
speed of sound (313.15 K, x2 = 0.157): 1314.4 ± 1.5 m/s
speed of sound (313.15 K, x2 = 0.2022): 1310.1 ± 1.5 m/s
speed of sound (313.15 K, x2 = 0.253): 1305.7 ± 1.5 m/s
speed of sound (313.15 K, x2 = 0.3057): 1300.1 ± 1.5 m/s
speed of sound (313.15 K, x2 = 0.4094): 1289.6 ± 1.5 m/s
speed of sound (313.15 K, x2 = 0.5018): 1278.9 ± 1.5 m/s
speed of sound (313.15 K, x2 = 0.6038): 1266.3 ± 1.5 m/s
speed of sound (313.15 K, x2 = 0.7003): 1253.2 ± 1.5 m/s
speed of sound (313.15 K, x2 = 0.8004): 1238.4 ± 1.5 m/s
speed of sound (313.15 K, x2 = 0.9043): 1221.6 ± 1.5 m/s
mass density (313.15 K, x2 = 0.0503): 817.16 ± 0.24 kg/m3
mass density (313.15 K, x2 = 0.1046): 818.367 ± 0.24 kg/m3
mass density (313.15 K, x2 = 0.157): 819.603 ± 0.24 kg/m3
mass density (313.15 K, x2 = 0.2022): 820.753 ± 0.24 kg/m3
mass density (313.15 K, x2 = 0.253): 822.116 ± 0.24 kg/m3
mass density (313.15 K, x2 = 0.3057): 823.62 ± 0.24 kg/m3
mass density (313.15 K, x2 = 0.4094): 826.953 ± 0.24 kg/m3
mass density (313.15 K, x2 = 0.5018): 830.393 ± 0.24 kg/m3
mass density (313.15 K, x2 = 0.6038): 834.849 ± 0.24 kg/m3
mass density (313.15 K, x2 = 0.7003): 839.96 ± 0.24 kg/m3
mass density (313.15 K, x2 = 0.8004): 846.506 ± 0.24 kg/m3
mass density (313.15 K, x2 = 0.9043): 855.097 ± 0.24 kg/m3
